Measurements taken from PMC7067379, “Mapping the S1 and S1’ subsites of cysteine proteases with new dipeptidyl nitrile inhibitors as trypanocidal agents” (PLoS Neglected Tropical Diseases, 2020).
Read-outs that look alike come from different tables or passages of the source.

What was measured:
recombinant cruzain (Cz) = recombinant cruzain (Cz) (Trypanosoma cruzi, UniProt P25779); assay: Cruzain enzyme inhibition; format: biochemical; settings: for remaining activity at 10 µM: replicates = 2; for Ki: SD lower than 15%, read-out: pKi Cz (converted)
Description: (§1) Enzyme inhibition studies for Cz and LmCPB were performed as previously described for Cz. The experimental procedures are described in the Supporting Information (see chapter S3). Cathepsins B, L, S were assayed as reported.

[1] = target: T1, Human recombinant cathepsin K (Homo sapiens, UniProt P43235); assay: Cathepsin K assay; format: biochemical; settings: for remaining activity at 10 µM: read-out: remaining activity (%) at 10 μM, CatK; for Ki: SD lower than 15%, read-out: pKi CatK (converted)
T1 sequence (P43235 115-329): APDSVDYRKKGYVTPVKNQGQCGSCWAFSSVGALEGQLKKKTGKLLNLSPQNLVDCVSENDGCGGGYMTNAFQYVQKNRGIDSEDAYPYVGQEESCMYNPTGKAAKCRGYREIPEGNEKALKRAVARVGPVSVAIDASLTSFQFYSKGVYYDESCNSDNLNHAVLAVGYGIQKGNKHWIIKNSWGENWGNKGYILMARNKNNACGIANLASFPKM
Description: Human recombinant cathepsin K was assayed on a FLUOSTAR Optima plate reader at 25 °C with an excitation wavelength of 360 nm and an emission wavelength of 440 nm on a 96 well plate. The enzyme solution (23 μg/mL in 50 mM sodium acetate pH 5.5, 50 mM NaCl, 0.5 mM EDTA, 5 mM DTT) was diluted 1:100 with assay buffer (100 mM sodium citrate buffer pH 5.0, 100 mM NaCl, 1 mM EDTA, 0.01% CHAPS) containing 5 mM DTT and was then incubated at 37 °C for 30 min for activation. A 1.5 mM stock solution of the substrate Z-Leu-Arg-AMC was prepared in DMSO. […] The assay was performed with a final concentration of cathepsin K of 1.73 ng/mL. Stock solutions of inhibitors were prepared in DMSO. The final DMSO concentration was 2% (4 μL). Into a well containing 194.5 μL assay buffer, 0.8 μL of the fluorogenic substrate, DMSO and inhibitor solution (3.2 μL) were added. Upon addition of cathepsin K (1.5 μL), the measurement was started and followed for 20 min.

cathepsin S (CatS) = cathepsin S (CatS) (Homo sapiens, UniProt P25774); assay: Cathepsin S enzyme inhibition; format: biochemical; settings: for Ki: SD lower than 15%, read-out: pKi CatS (converted)
Description: as §1

[2] = test system: T. cruzi Tulahuen LacZ strain, intracellular amastigote forms; assay: In vitro trypanocidal activity on intracellular amastigote forms (Tulahuen strain); format: cell-based, Trypanosoma cruzi; settings: for EC50: Trypanosoma cruzi, TULAHUEN; for SI (selective index): from EC50 (T. cruzi) and CC50 (LLCMK2)
Description: Cells were evaluated in 96-well plates. Cells from the LLCMK2 lineage were plated at a concentration of 5x10^4 cells mL^-1. Trypomastigote forms of the Tulahuen LacZ strain were added at a concentration of 5×10^5 parasites mL^-1 and placed in the incubator at 37°C with 5% CO2 for 24 h. After the incubation period, the trypomastigote forms present were removed by successive washes with PBS, remaining only as intracellular amastigote forms. Compounds were added at different concentrations (1.95 μM to 250 μM serial dilutions) and incubated for 72 h. At the end of this period, the substrate CPRG (chlorophenol red β-D-galactopyranoside, 400 μM in 0.3% Triton X-100, pH 7.4) was added. […] Benznidazole was used as a positive control in the same concentrations as the substances, and DMSO as a negative control. Compounds were solubilized in DMSO. The selectivity index (SI) was calculated using the formula: […]. All statistical analyses were done with the program GraphPad Prism v.5.

LLCMK2 cells = assay: Mammalian cytotoxicity assay (MTT); format: cell-based; settings: LLCMK2, 72 h, MTT; Table 2;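 further: Read-out is absorbance at 570 nm of formazan taken up in DMSO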
Description: (§2) LLCMK2 cells were cultured in 96-well plates at a concentration of 5 x 10^4 cells/ml. After 48 h, the plates were washed twice with PBS and 200 μL RPMI medium was added with serial dilutions of the compounds and benznidazole (1.95 μM to 250 μM) in triplicate. After 72 h at 37 °C, the cytotoxic activity of the compounds was determined by the classical MTT [3- (4,5-dimethylthiazol-2-yl) -2,5-diphenyltetrazolium bromide] method. Briefly, 50 μL MTT dissolved in PBS (2.0 mg mL^-1) was added to each well and the plates were incubated for 4 h at 37 °C. The formed formazan crystals were dissolved with DMSO (50 μL/well) and the absorbance of the samples was measured by spectrophotometer at 570 nm after 30 min.

[3] = Mammalian cytotoxicity assay (MTT); format: cell-based; settings: rhesus monkey, LLCMK2 cells;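 further: Read-out is absorbance at 570 nm of formazan taken up in DMSO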
Description: as §2

cathepsin B (CatB) = cathepsin B (CatB) (Homo sapiens, UniProt P07858); assay: Cathepsin B enzyme inhibition; format: biochemical; settings: for remaining activity (%) at 10 μM, CatB / remaining activity at 10 µM: replicates = 2, n.i. = no inhibition observed at 10 μM
[4] = target: Leishmania mexicana CPB (LmCPB) (Leishmania mexicana, UniProt P36400); assay: LmCPB enzyme inhibition; format: biochemical; settings: for remaining activity at 10 µM: replicates = 2; for Ki: SD lower than 15%, read-out: pKi LmCPB (converted)
Description: as §1

cathepsin L (CatL) = cathepsin L (CatL) (Homo sapiens, UniProt P07711); assay: Cathepsin L enzyme inhibition; format: biochemical; settings: for remaining activity at 10 µM: replicates = 2, n.i. = no inhibition observed at 10 μM; for Ki: SD lower than 15%, read-out: pKi CatL (converted)
T. cruzi infection = test system: T. cruzi infection; design: method as in PMID 14580960; settings: mice ref 10, 11; cited from earlier work
[5] = dog, in vivo; cited from earlier work
T. cruzi = test system: T. cruzi; design: method as in PMID 14580960; settings: dogs ref 10, 11; cited from earlier work
[6] = 10 μM, replicates = 2, n.i. = no inhibition observed at 10 μM
[7] = 72 h, amastigote, Tulahuen strain, 72 h, Table 2, read-out: EC50 trypanocidal activity
[8] = T. cruzi amastigote form, S1 Table, read-out: pEC50 (converted)
[9] = LLCMK2, 72 h, MTT, Table 2, read-out: CC50 cytotoxicity
[10] = S1 Table, maximum concentration used 250 µM, read-out: CC50
[11] = S1 Table, maximum concentration used 250 µM, read-out: EC50 T. cruzi
[12] = amastigote forms of T. cruzi (Tuhaluen strain), Figs 12-14, unit inferred, read-out: EC50

Chain of cathepsin L (CatL) (P07711 114-333): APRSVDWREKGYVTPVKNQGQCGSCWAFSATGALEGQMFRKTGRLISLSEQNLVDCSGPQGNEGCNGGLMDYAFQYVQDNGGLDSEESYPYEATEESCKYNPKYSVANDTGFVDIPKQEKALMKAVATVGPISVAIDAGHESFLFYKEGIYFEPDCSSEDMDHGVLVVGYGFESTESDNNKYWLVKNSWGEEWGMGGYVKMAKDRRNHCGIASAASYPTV
Chain of recombinant cruzain (Cz) (P25779 123-337): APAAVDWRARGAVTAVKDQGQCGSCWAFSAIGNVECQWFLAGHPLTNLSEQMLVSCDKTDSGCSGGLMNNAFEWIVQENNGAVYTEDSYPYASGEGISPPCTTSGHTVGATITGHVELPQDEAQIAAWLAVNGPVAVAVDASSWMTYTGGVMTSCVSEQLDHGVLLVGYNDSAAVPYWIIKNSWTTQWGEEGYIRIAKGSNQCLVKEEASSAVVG
Chain of cathepsin S (CatS) (P25774 115-331): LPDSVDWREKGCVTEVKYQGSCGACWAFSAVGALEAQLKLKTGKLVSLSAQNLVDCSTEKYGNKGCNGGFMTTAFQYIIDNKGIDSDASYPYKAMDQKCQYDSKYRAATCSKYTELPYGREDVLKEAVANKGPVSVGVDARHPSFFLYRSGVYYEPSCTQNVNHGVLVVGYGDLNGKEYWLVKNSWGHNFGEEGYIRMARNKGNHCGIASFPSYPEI
Chain of Leishmania mexicana CPB (LmCPB) (P36400 126-443): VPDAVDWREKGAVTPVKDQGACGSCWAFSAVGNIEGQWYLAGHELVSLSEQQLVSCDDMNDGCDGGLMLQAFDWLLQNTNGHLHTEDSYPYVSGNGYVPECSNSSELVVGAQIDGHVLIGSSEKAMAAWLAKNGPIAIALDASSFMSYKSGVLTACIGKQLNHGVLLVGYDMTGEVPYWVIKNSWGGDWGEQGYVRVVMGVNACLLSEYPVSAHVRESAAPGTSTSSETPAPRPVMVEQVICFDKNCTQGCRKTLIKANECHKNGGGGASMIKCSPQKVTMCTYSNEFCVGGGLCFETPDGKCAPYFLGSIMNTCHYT

Row | SMILES | remaining activity at 10 µM (recombinant cruzain (Cz)) [%] | remaining activity at 10 µM [1, 6] [%] | melting point [°C] | EC50 [2, 7] [µM] | EC50 [2, 8] [µM] | CC50 at 72 h [3, 9] [µM] | CC50 at 72 h [3, 10] [µM] | remaining activity at 10 µM [4] [%] | remaining activity at 10 µM (cathepsin L (CatL)) [%] | Ki (recombinant cruzain (Cz)) [µM] | Ki [1] [µM] | Ki (cathepsin S (CatS)) [µM] | EC50 [2, 11] [µM] | Ki [4] [µM] | Ki (cathepsin L (CatL)) [µM] | SI (selective index) ([2]; Table 2) | remaining activity at 10 µM (cathepsin B (CatB)) [%] | also measured
1 | C[C@H](OCc1ccccc1)[C@H](C#N)NC(=O)[C@H](Cc1ccccc1)NC(=O)c1cc(C(C)(C)C)nn1C [Compound 57, N-((S)-1-(((1S,2S)-2-(Benzyloxy)-1-cyanopropyl)amino)-1-oxo-3-phenylpropan-2-yl)-3-(tert-butyl)-1-methyl-1H-pyrazole-5-carboxamide] | 75 | 97 | 123 to 124 | 4.3 ± 0.32 | 3.98 | ~125 | 141 | 72 | 85 | – | – | – | – | – | – | – | – | remaining activity (%) at 10 μM, CatS (cathepsin S (CatS); [6]): n.i.^c; CC50 (LLCMK2 cells): > 100 µM; remaining activity (%) at 10 μM, CatB (cathepsin B (CatB)): n.i.^c
2 | CC(C)C[C@H](NC(=O)c1cc(C(C)(C)C)nn1C)C(=O)N[C@H](C#N)[C@@H](C)OCc1ccccc1 [Compound 58, N-((S)-1-(((1R,2R)-2-(Benzyloxy)-1-cyanopropyl)amino)-4-methyl-1-oxopentan-2-yl)-3-(tert-butyl)-1-methyl-1H-pyrazole-5-carboxamide] | – | – | 96 to 97 | – | > 100 | – | > 100 | – | – | 0.0126 | 0.0158 | 0.0501 | > 100 | 0.02 | 0.0631 | – | – | difference in pKi, Cz (recombinant cruzain (Cz); relative to compound 9, sign not given, direction by cell colour or wording): 0.6; EC50 [2, 12]: > 100 µM; Ki (cathepsin B (CatB); SD lower than 15%, read-out: pKi CatB (converted)): 7.94 µM; difference in pKi, LmCPB ([4]; relative to compound 11, sign not given, direction by cell colour or wording): 0.4
3 | CC(C)C[C@H](NC(=O)c1cc(C(C)(C)C)nn1C)C(=O)N[C@@H](C#N)[C@H](C)OCc1ccccc1 [Compound 59, N-((S)-1-(((1S,2S)-2-(Benzyloxy)-1-cyanopropyl)amino)-4-methyl-1-oxopentan-2-yl)-3-(tert-butyl)-1-methyl-1H-pyrazole-5-carboxamide] | 60 | – | 110 to 111 | – | > 100 | – | > 100 | 75 | 90 | – | – | – | > 100 | – | – | – | – | remaining activity (%) at 10 μM, CatK [1, 6]: n.i.^c; remaining activity at 10 µM (cathepsin S (CatS); [6]): 85%; EC50 [2, 12]: > 100 µM; remaining activity (%) at 10 μM, CatB (cathepsin B (CatB)): n.i.^c
4 | C[C@@H](O)[C@@H](C#N)NC(=O)[C@H](Cc1ccccc1)NC(=O)c1cc(C(C)(C)C)nn1C [Compound 65, 3-(tert-Butyl)-N-((S)-1-(((1R,2R)-1-cyano-2-hydroxypropyl)amino)-1-oxo-3-phenylpropan-2-yl)-1-methyl-1H-pyrazole-5-carboxamide] | 68 | 86 | 159 to 160 | 70.8 ± 8.79 | 79.4 | > 100 | – | 69 | – | – | – | 5.01 | – | – | 5.01 | > 1.4 | 92 | –
5 | C[C@H](O)[C@H](C#N)NC(=O)[C@H](Cc1ccccc1)NC(=O)c1cc(C(C)(C)C)nn1C [Compound 66, 3-(tert-Butyl)-N-((S)-1-(((1S,2S)-1-cyano-2-hydroxypropyl)amino)-1-oxo-3-phenylpropan-2-yl)-1-methyl-1H-pyrazole-5-carboxamide] | – | 81 | 145 to 147 | 30 ± 2.71 | 31.6 | > 100 | – | – | – | 3.98 | – | 20 | – | 15.8 | 2.51 | > 3.3 | 89 | –
6 | CC(C)C[C@H](NC(=O)c1cc(C(C)(C)C)nn1C)C(=O)N[C@H](C#N)[C@@H](C)O [Compound 67, 3-(tert-Butyl)-N-((S)-1-(((1R,2R)-1-cyano-2-hydroxypropyl)amino)-4-methyl-1-oxopentan-2-yl)-1-methyl-1H-pyrazole-5-carboxamide] | – | – | 118 to 119 | 24.4 ± 2.36 | 25.1 | > 100 | – | – | – | 0.0794 | 0.0158 | 10 | – | 0.2 | 0.1 | > 4.1 | 92 | –
7 | CC(C)C[C@H](NC(=O)c1cc(C(C)(C)C)nn1C)C(=O)N[C@@H](C#N)[C@H](C)O [Compound 68, 3-(tert-Butyl)-N-((S)-1-(((1S,2S)-1-cyano-2-hydroxypropyl)amino)-4-methyl-1-oxopentan-2-yl)-1-methyl-1H-pyrazole-5-carboxamide] | – | – | 111 to 113 | 16 ± 4 | 15.8 | > 100 | – | 54 | 88 | 3.98 | 7.94 | – | 16.3 | – | – | > 6.3 | 93 | remaining activity at 10 µM (cathepsin S (CatS); [6]): 83%
8 | CN1CCN(C(=O)N[C@@H](Cc2ccccc2)C(=O)N[C@H](/C=C/S(=O)(=O)c2ccccc2)CCc2ccccc2)CC1 [Compound K777] | – | – | – | – | – | – | – | – | – | – | – | – | – | – | – | – | – | rescue from lethal infection (T. cruzi infection): rescue mice of a lethal experimental T. cruzi infection; side effects [5]: substantial side effects; effect on parasite growth (T. cruzi): reduce parasite growth
